Laboratory results: patent US20260116920A1, “HUMAN TRANSFERRIN RECEPTOR BINDING PEPTIDE” (PEPTIDREAM INC., priority 2021, published 2026)
Starred links: 1 amine or outer side, 2 acyl side, 3 side chain; linkers in the order of their positions; H or OH if unused. Positions of bridges follow the written chain, without caps; N, C: chain ends. Non-standard residues stand in square brackets, D forms with d. Residues, ends and D or L forms follow the SMILES beside them. *: point of attachment. E(PEG8Me) = (S)-30-amino-27-oxo-2,5,8,11,14,17,20,23-octaoxa-26-azahentriacontane-31-oic acid, COCCOCCOCCOCCOCCOCCOCCOCCNC(=O)CC[C@H](N[*:1])C(=O)[*:2]; Qpipzaa = (S)-2-amino-5-(4-(carboxymethyl)piperazin-1-yl)-5-oxopentanoic acid, O=C(CC[C@H](N[*:1])C(=O)[*:2])N1CCN(CC(=O)[*:3])CC1; F4aao = (S)-2-amino-3-(4-(carboxymethoxy)phenyl)propanoic acid, O=C([C@H](Cc1ccc(OCC(=O)[*:3])cc1)N[*:1])[*:2]; NH(1-deoxy-D-glucityl) = OC[C@@H](O)[C@@H](O)[C@H](O)[C@@H](O)CN*; Trp(1-CH2CO) = O=C([C@H](Cc1cn(CC(=O)[*:3])c2ccccc12)N[*:1])[*:2]; Trp(1-CH2COOH) = N[C@@H](Cc1cn(CC(=O)O)c2ccccc12)C(=O)O; Phe(3-COOH) = N[C@@H](Cc1cccc(C(=O)O)c1)C(=O)O; NMePhe(3-Cl) = CN[C@@H](Cc1cccc(Cl)c1)C(=O)O; 3Pal(6-NH2) = Nc1ccc(C[C@H](N)C(=O)O)cn1; PEG8 = NCCOCCOCCOCCOCCOCCOCCOCCOCCC(=O)O; Lys(N3) = [N-]=[N+]=NCCCC[C@H](N)C(=O)O; NMe3Pal = CN[C@@H](Cc1cccnc1)C(=O)O; NMeY = CN[C@@H](Cc1ccc(O)cc1)C(=O)O; 3Pal = N[C@@H](Cc1cccnc1)C(=O)O; 4Pal = N[C@@H](Cc1ccncc1)C(=O)O; PEG4 = NCCOCCOCCOCCOCCC(=O)O; Carboxymethyl = O=C(O)C*; NHCH2CH2OMe = COCCN*

Target: T1, human transferrin receptor (hTfR) (Homo sapiens, UniProt P02786)
T1 construct: made in house
Test: Evaluation of molecular interaction between transferrin receptor (hTfR) and peptide using surface plasmon resonance (SPR)
Type: binding
Settings: KD class for binding to hTfR by SPR, peptide with the linker shown in the same line, 'low signal indicates no activity'; for Kd: read-out: SPR
Protocol: Evaluation Test of Molecular Interaction Between Transferrin Receptor (hTfR) and Peptide Using Surface Plasmon Resonance (SPR)
The intermolecular interactions of various synthesized peptides with the transferrin receptor (hTfR) by surface plasmon resonance (SPR) of the peptides were tested by the methods described below. Specific test methods are shown below.
NTA sensor chip (Global Life Sciences Technologies Japan K.K.) was inserted into BiacoreT200 (Global Life Sciences Technologies Japan K.K.), then the priming operation was performed three times by using running buffer containing: 10 mM HEPES pH 8.0 (Nacalai Tesque, Inc.), 150 mM NaCl (Nacalai Tesque, Inc.), 0.05% Tween 20 (Nacalai Tesque, Inc.), 0.1% BSA (SIGMA-ALDRICH) and 1.0% DMSO (FUJIFILM Wako Pure Chemical Corporation), and equilibrated at a flow rate of 30 μL/min. 350 mM EDTA solution was reacted at a flow rate of 10 μL/min for 60 seconds, 0.5 mM […] solution (Kishida Chemical Co., Ltd.) was reacted at a flow rate of 10 μL/min for 60 seconds, and then the NTA sensor chip was washed with 3 mM EDTA solution (Nacalai Tesque, Inc.) at a flow rate of 10 μL/min for 60 seconds. After mixing 50 μL each of 60 mM EDC solution (Global Life Science Technologies Japan K.K.) and 650 mM NHS solution (Global Life Science Technologies Japan K.K.), the reaction was carried out at a flow rate of 10 μL/min for 420 seconds. 150 μL of 0.5 μM hTfR dimer solution was prepared by dilution with running buffer and reacted at a flow rate of 10 μL/min for 300 seconds to immobilize hTfR on the NTA sensor chip. For the human transferrin receptor (hTfR), recombinant hTfR described in Example 2 of WO2018/124121 was used. After immobilization, capping was performed by reacting with 1.0 M ethanolamine solution (Global Life Sciences Technologies Japan K.K.) at a flow rate of 10 μL/min for 420 seconds. Peptide lysate prepared in DMSO solution to 10 mM was diluted with running buffer to be a final concentration of 10 μM peptide lysate, then peptide solutions of 100 nM, 50 nM, 25 nM, 10 nM, and 5 nM were prepared. Using the above samples, the kinetics of the peptide against hTfR was obtained by SPR measurement.
The kinetic evaluation model was single-cycle kinetics, and curve fitting was performed using Biacore T200 Evaluation Software Version 3.0 (Global Life Science Technologies Japan K.K.). The binding of the peptide to hTfR was evaluated by performing curve fitting on the obtained sensorgram by least squares method and obtaining the KD value.

T1 sequence (P02786 89-760 limits assumed): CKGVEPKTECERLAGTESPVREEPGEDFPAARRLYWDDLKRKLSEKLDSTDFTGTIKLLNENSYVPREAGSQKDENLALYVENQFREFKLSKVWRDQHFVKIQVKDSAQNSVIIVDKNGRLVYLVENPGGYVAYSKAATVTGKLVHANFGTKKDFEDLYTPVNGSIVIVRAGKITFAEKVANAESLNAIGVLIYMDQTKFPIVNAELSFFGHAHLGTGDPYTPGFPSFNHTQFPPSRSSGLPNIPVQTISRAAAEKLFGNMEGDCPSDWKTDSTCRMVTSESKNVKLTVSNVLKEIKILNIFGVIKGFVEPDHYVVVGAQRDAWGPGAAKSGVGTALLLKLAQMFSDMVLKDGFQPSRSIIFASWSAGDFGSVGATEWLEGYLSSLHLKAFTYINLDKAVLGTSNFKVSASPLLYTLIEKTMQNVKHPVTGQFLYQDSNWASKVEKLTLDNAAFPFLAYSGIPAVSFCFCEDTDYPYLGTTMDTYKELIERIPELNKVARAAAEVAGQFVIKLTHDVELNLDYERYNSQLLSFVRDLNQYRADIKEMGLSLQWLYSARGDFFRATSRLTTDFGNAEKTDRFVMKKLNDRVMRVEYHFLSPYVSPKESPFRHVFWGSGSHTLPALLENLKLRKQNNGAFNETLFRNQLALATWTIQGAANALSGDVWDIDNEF

Row | Compound | SPR | Kd [µM]
1 | CC[C@H](C)[C@@H]1NC(=O)[C@H](Cc2ccc(OC)cc2)NC(=O)[C@H](Cc2ccc(O)cc2)NC(=O)[C@H](CC(N)=O)NC(=O)[C@H](Cc2c[nH]c3ccccc23)NC(=O)[C@H](C(C)C)NC(=O)[C@H](Cc2cccc(Cl)c2)N(C)C(=O)[C@H](C(C)C)NC(=O)[C@H](C)NC(=O)CSC[C@@H](C(=O)NCCOCCOCCOCCOCCC(N)=O)NC(=O)[C@H](Cc2ccc(O)cc2)N(C)C(=O)[C@H](Cc2ccc(O)cc2)NC(=O)[C@H](CCCNC(=N)N)NC(=O)[C@H](CCCCN)NC(=O)[C@H]([C@@H](C)CC)NC1=O [894_0292] |  | 0.001 to 0.1
2 | CC[C@H](C)[C@@H]1NC(=O)[C@H](Cc2ccc(OC)cc2)NC(=O)[C@H](Cc2ccc(O)cc2)NC(=O)[C@H](CC(N)=O)NC(=O)[C@H](Cc2c[nH]c3ccccc23)N(C)C(=O)[C@H](C(C)C)NC(=O)[C@H](Cc2cccc(Cl)c2)N(C)C(=O)[C@H](C(C)C)NC(=O)[C@H](C)NC(=O)CSC[C@@H](C(=O)NCCOCCOCCOCCOCCC(N)=O)NC(=O)[C@H](Cc2ccc(O)cc2)N(C)C(=O)[C@H](Cc2ccc(O)cc2)NC(=O)[C@H](CCCNC(=N)N)NC(=O)[C@H](CCCNC(=N)N)NC(=O)[C@H]([C@@H](C)CC)NC1=O [894_0293] |  | 0.001 to 0.1
3 | CC[C@H](C)[C@@H]1NC(=O)[C@H](Cc2cccnc2)NC(=O)[C@H](Cc2ccc(N)nc2)NC(=O)[C@H](CC(N)=O)NC(=O)[C@H](Cc2c[nH]c3ccccc23)NC(=O)[C@H](C(C)C)NC(=O)[C@H](Cc2cccnc2)N(C)C(=O)[C@H](C(C)C)NC(=O)[C@H](C)NC(=O)CSC[C@@H](C(=O)NCCOCCOCCOCCOCCC(N)=O)NC(=O)[C@H](Cc2ccc(O)cc2)N(C)C(=O)[C@H](Cc2ccncc2)NC(=O)[C@H](CCCNC(=N)N)NC(=O)[C@H](CCCNC(=N)N)NC(=O)[C@H]([C@@H](C)CC)NC1=O [894_0321] ({CH2CO}-AV[NMe3Pal]VWN[3Pal(6-NH2)][3Pal]IIRR[4Pal][NMeY]C[PEG4]-NH2; thioether N-15) |  | 0.001 to 0.1
4 | CC[C@H](C)[C@@H]1NC(=O)[C@H](Cc2cccnc2)NC(=O)[C@H](Cc2ccc(O)cc2)NC(=O)[C@H](CC(N)=O)NC(=O)[C@H](Cc2c[nH]c3ccccc23)NC(=O)[C@H](C(C)C)NC(=O)[C@H](Cc2cccc(Cl)c2)N(C)C(=O)[C@H](C(C)C)NC(=O)[C@H](C)NC(=O)CSC[C@@H](C(=O)NCCOCCOCCOCCOCCC(N)=O)NC(=O)[C@H](Cc2ccc(O)cc2)N(C)C(=O)[C@H](Cc2ccncc2)NC(=O)[C@H](CCC(=O)NCCOC)NC(=O)[C@H](CCC(=O)NCCOC)NC(=O)[C@H]([C@@H](C)CC)NC1=O [894_0326] ({CH2CO}-AV[NMePhe(3-Cl)]VWNY[3Pal]IIE(NHCH2CH2OMe)E(NHCH2CH2OMe)[4Pal][NMeY]C[PEG4]-NH2; thioether N-15) |  | 0.001 to 0.1
5 | CC[C@H](C)[C@@H]1NC(=O)[C@H](Cc2cccnc2)NC(=O)[C@H](Cc2ccc(O)cc2)NC(=O)[C@H](CC(N)=O)NC(=O)[C@H](Cc2c[nH]c3ccccc23)NC(=O)[C@H](C(C)C)NC(=O)[C@H](Cc2cccc(Cl)c2)N(C)C(=O)[C@H](C(C)C)NC(=O)[C@H](C)NC(=O)CSC[C@@H](C(=O)NCCOCCOCCOCCOCCC(N)=O)NC(=O)[C@H](Cc2ccc(O)cc2)N(C)C(=O)[C@H](Cc2ccncc2)NC(=O)[C@H](CCC(=O)NC[C@H](O)[C@@H](O)[C@H](O)[C@H](O)CO)NC(=O)[C@H](CCC(=O)NC[C@H](O)[C@@H](O)[C@H](O)[C@H](O)CO)NC(=O)[C@H]([C@@H](C)CC)NC1=O [894_0328] ({CH2CO}-AV[NMePhe(3-Cl)]VWNY[3Pal]IIE(NH(1-deoxy-D-glucityl))E(NH(1-deoxy-D-glucityl))[4Pal][NMeY]C[PEG4]-NH2; thioether N-15) |  | 0.001 to 0.1

Now from value to compound:

Row | SPR | Kd [µM] | Compound
6 | Low signal |  | 894_0385 ({CH2CO}-AV[NMePhe(3-Cl)]V[Trp(1-CH2CO)]NY[F4aao]II[Qpipzaa][Qpipzaa]F[NMeY]C-NH2; thioether N-15; also: linker PEG4c, place not given here)
7 | Low signal |  | 894_3181 (AVFVWNYFIIEEFYC; cyclised or stapled)
8 | Low signal |  | 894_3183 ({CH2CO}-AV[NMePhe(3-Cl)]V[Trp(1-CH2CO)]NY[F4aao]II[E(PEG8Me)][E(PEG8Me)]F[NMeY]CG[PEG8][Lys(N3)]-NH2; thioether N-15; SMILES CC[C@H](C)[C@@H]1NC(=O)[C@H](Cc2ccc(OCC(=O)O)cc2)NC(=O)[C@H](Cc2ccc(O)cc2)NC(=O)[C@H](CC(N)=O)NC(=O)[C@H](Cc2cn(CC(=O)O)c3ccccc23)NC(=O)[C@H](C(C)C)NC(=O)[C@H](Cc2cccc(Cl)c2)N(C)C(=O)[C@H](C(C)C)NC(=O)[C@H](C)NC(=O)CSC[C@@H](C(=O)NCC(=O)NCCOCCOCCOCCOCCOCCOCCOCCOCCC(=O)N[C@@H](CCCCN=[N+]=[N-])C(N)=O)NC(=O)[C@H](Cc2ccc(O)cc2)N(C)C(=O)[C@H](Cc2ccccc2)NC(=O)[C@H](CCC(=O)NCCOCCOCCOCCOCCOCCOCCOCCOC)NC(=O)[C@H](CCC(=O)NCCOCCOCCOCCOCCOCCOCCOCCOC)NC(=O)[C@H]([C@@H](C)CC)NC1=O)
9 | Low signal |  | 894_3184 ({CH2CO}-AV[NMePhe(3-Cl)]V[Trp(1-CH2CO)]NY[F4aao]II[E(PEG8Me)][E(PEG8Me)][Phe(3-COOH)][NMeY]CG[Lys(N3)]-NH2; thioether N-15; SMILES CC[C@H](C)[C@@H]1NC(=O)[C@H](Cc2ccc(OCC(=O)O)cc2)NC(=O)[C@H](Cc2ccc(O)cc2)NC(=O)[C@H](CC(N)=O)NC(=O)[C@H](Cc2cn(CC(=O)O)c3ccccc23)NC(=O)[C@H](C(C)C)NC(=O)[C@H](Cc2cccc(Cl)c2)N(C)C(=O)[C@H](C(C)C)NC(=O)[C@H](C)NC(=O)CSC[C@@H](C(=O)NCC(=O)N[C@@H](CCCCN=[N+]=[N-])C(N)=O)NC(=O)[C@H](Cc2ccc(O)cc2)N(C)C(=O)[C@H](Cc2cccc(C(=O)O)c2)NC(=O)[C@H](CCC(=O)NCCOCCOCCOCCOCCOCCOCCOCCOC)NC(=O)[C@H](CCC(=O)NCCOCCOCCOCCOCCOCCOCCOCCOC)NC(=O)[C@H]([C@@H](C)CC)NC1=O)
10 |  | 0.001 to 0.1 | CC[C@H](C)[C@@H]1NC(=O)[C@H](Cc2ccc(OCC(=O)O)cc2)NC(=O)[C@H](Cc2ccc(O)cc2)NC(=O)[C@H](CC(N)=O)NC(=O)[C@H](Cc2cn(CC(=O)O)c3ccccc23)NC(=O)[C@H](C(C)C)NC(=O)[C@H](Cc2cccc(Cl)c2)N(C)C(=O)[C@H](C(C)C)NC(=O)[C@H](C)NC(=O)CSC[C@@H](C(=O)NCCOCCOCCOCCOCCC(N)=O)NC(=O)[C@H](Cc2ccc(O)cc2)N(C)C(=O)[C@H](Cc2cccc(C(=O)O)c2)NC(=O)[C@H](CCC(=O)NCCOC)NC(=O)[C@H](CCC(=O)NCCOC)NC(=O)[C@H]([C@@H](C)CC)NC1=O [894_0329] ({CH2CO}-AV[NMePhe(3-Cl)]V[Trp(1-CH2COOH)]NYY(Carboxymethyl)IIE(NHCH2CH2OMe)E(NHCH2CH2OMe)[Phe(3-COOH)][NMeY]C[PEG4]-NH2; thioether N-15)
11 |  | 0.001 to 0.1 | CC[C@H](C)[C@@H]1NC(=O)[C@H](Cc2ccc(OC)cc2)NC(=O)[C@H](Cc2ccc(O)cc2)NC(=O)[C@H](CC(N)=O)NC(=O)[C@H](Cc2c[nH]c3ccccc23)NC(=O)[C@H](C(C)C)NC(=O)[C@H](Cc2cccc(Cl)c2)N(C)C(=O)[C@H](C(C)C)NC(=O)[C@H](C)NC(=O)CSC[C@@H](C(=O)NCCOCCOCCOCCOCCC(N)=O)NC(=O)[C@H](Cc2ccc(O)cc2)N(C)C(=O)[C@H](Cc2ccccc2)NC(=O)[C@H](CCC(=O)NCCOC)NC(=O)[C@H](CCC(=O)NCCOC)NC(=O)[C@H]([C@@H](C)CC)NC1=O [894_0330] ({CH2CO}-AV[NMePhe(3-Cl)]VWNYY(Me)IIE(NHCH2CH2OMe)E(NHCH2CH2OMe)F[NMeY]C[PEG4]-NH2; thioether N-15)
